Measurements: US20180065917A1, “IMMUNE CHECKPOINT INHIBITORS, COMPOSITIONS AND METHODS THEREOF” (Polaris Pharmaceuticals, Inc., priority 2016, published 2018)

Columns and labels:
[1] = molecular target: T1, PD-L1/PD-1 complex formation (Homo sapiens, UniProt Q9NZQ7); experiment: PD-L1/PD-1 Interaction Assay (ELISA platform); format: binding; details: human PD-1-Fc coated plates, PD-L1-Fc-biotin 0.1 μg/ml, compounds pre-incubated 2 hours
T1 construct: purchased BPS Bioscience
Experimental: The ability of compounds to block PD-L1/PD-1 complex formation was evaluated using biochemical interaction assay based on the ELISA platform.
EIA/RIA high binding 96-well plates (Costar) were coated with human PD-1-Fc protein diluted in PBS to 0.5 μg/ml overnight at 4° C. The PD-1-Fc coated plates were washed in PBST and blocked in blocking buffer (2% BSA in PBST). Serially diluted compounds were pre-incubated with PD-L1-Fc-biotin (0.1 μg/ml final) for 2 hours on a shaker at room temperature. The PD-1-Fc coated plates were washed with PBST and solutions containing PD-L1 and compounds were added to the plates. The PD-1-Fc coated plates were incubated with PD-L1 and compound solution for 2 hours on a shaker at room temperature. After the incubation unbound PD-L1 was washed away with PBST and plates were incubated with the blocking buffer for 10 minutes. The bound PD-L1-Fc-biotin was detected with streptavidin-HRP and TMB substrate. The plates were read at OD450 nm in a plate reader (i3 from Molecular Devices) and percentages of inhibition of PD-L1/PD-1 complex formation were calculated.
PD-1-Fc protein was made at Polaris and PD-L1-Fc was purchased from BPS Bioscience.

T1 sequence (Q9NZQ7 19-239 limits assumed, one chain of several): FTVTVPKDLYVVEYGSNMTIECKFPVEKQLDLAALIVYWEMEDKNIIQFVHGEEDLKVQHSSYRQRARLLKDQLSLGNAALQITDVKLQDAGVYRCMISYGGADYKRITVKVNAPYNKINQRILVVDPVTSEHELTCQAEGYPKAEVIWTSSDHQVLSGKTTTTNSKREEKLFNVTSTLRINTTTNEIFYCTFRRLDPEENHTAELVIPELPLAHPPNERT

SMILES | IC50 [1] [nM] | melting point [°C]
O=C(O)[C@@H]1CCCCN1Cc1ccc(OCc2cccc(-c3cccc(COc4ccc(CN5CCCC[C@H]5C(=O)O)cc4Br)c3)c2)c(Br)c1 [Example 8, (2S,2′S)-1,1′-(((([1,1′-Biphenyl]-3,3′-diylbis(methylene))bis(oxy))bis(3-bromo-4,1-phenylene))bis(methylene))bis(piperidine-2-carboxylic acid)] | 1010 to 30000 | 306 to 310
COc1cc(CN2CCCC[C@H]2C(=O)O)ccc1OCc1cccc(-c2cccc(COc3ccc(CN4CCCC[C@H]4C(=O)O)cc3OC)c2C)c1C [Example 20, (2S,2′S)-1,1′-(((((2,2′-Dimethyl-[1,1′-biphenyl]-3,3′-diyl)bis(methylene))bis(oxy))bis(3-methoxy-4,1-phenylene))bis(methylene))bis(piperidine-2-carboxylic acid)] | 1010 to 30000 | 192 to 196
Cc1c(COc2ccc(CN3CCCC[C@H]3C(=O)O)cc2Cl)cccc1-c1cccc(COc2ccc(CN3CCCC[C@H]3C(=O)O)cc2Cl)c1C [Example 12, (2S,2′S)-1,1′-(((((2,2′-Dimethyl-[1,1′-biphenyl]-3,3′-diyl)bis(methylene))bis(oxy))bis(3-chloro-4,1-phenylene))bis(methylene))bis(piperidine-2-carboxylic acid)] | 11 to 100 | 184 to 188
O=C(O)[C@@H]1CCCCN1Cc1ccc(OCc2cccc(-c3cccc(COc4ccc(CN5CCCC[C@H]5C(=O)O)cc4Br)c3F)c2F)c(Br)c1 [Example 10, (2S,2′S)-1,1′-(((((2,2′-Difluoro-[1,1′-biphenyl]-3,3′-diyl)bis(methylene))bis(oxy))bis(3-bromo-4,1-phenylene))bis(methylene))bis(piperidine-2-carboxylic acid)] | 110 to 1000 | 204 to 208
O=C(O)[C@@H]1CCCCN1Cc1ccc(OCc2cccc(-c3cccc(COc4ccc(CN5CCCC[C@H]5C(=O)O)cc4Br)c3Cl)c2Cl)c(Br)c1 [Example 9, (2S,2′S)-1,1′-(((((2,2′-Dichloro-[1,1′-biphenyl]-3,3′-diyl)bis(methylene))bis(oxy))bis(3-bromo-4,1-phenylene))bis(methylene))bis(piperidine-2-carboxylic acid)] | 0.1 to 10 | 184 to 188
CC(=O)NCCNCc1ccc(OCc2cccc(-c3cccc(COc4ccc(CNCCNC(C)=O)cc4Br)c3C)c2C)c(Br)c1 [Example 6, N,N′-(((((((2,2′-Dimethyl-[1,1′-biphenyl]-3,3′-diyl)bis(methylene))bis(oxy))bis(3-bromo-4,1-phenylene))bis(methylene))bis(azanediyl))bis(ethane-2,1-diyl))diacetamide] | 11 to 100 | 95 to 99
Cc1cc(CN2CCCC[C@H]2C(=O)O)ccc1OCc1cccc(-c2cccc(COc3ccc(CN4CCCC[C@H]4C(=O)O)cc3C)c2C)c1C [Example 11, (2S,2′S)-1,1′-(((((2,2′-Dimethyl-[1,1′-biphenyl]-3,3′-diyl)bis(methylene))bis(oxy))bis(3-methyl-4,1-phenylene))bis(methylene))bis(piperidine-2-carboxylic acid)] | 11 to 100 | 191 to 195
Cc1c(COc2ccc(CN3CCCC[C@H]3C(=O)O)cc2Br)cccc1-c1cccc(COc2ccc(CN3CCCC[C@H]3C(=O)O)cc2Br)c1C [Example 1, (2S,2′S)-1,1′-(((((2,2′-dimethyl-[1,1′-biphenyl]-3,3′-diyl)bis(methylene))bis(oxy))bis(3-bromo-4,1-phenylene))bis(methylene))bis(piperidine-2-carboxylic acid)] | 0.1 to 10 | 222 to 226
Cc1c(COc2ccc(CN3CCCC[C@H]3C(=O)O)cc2F)cccc1-c1cccc(COc2ccc(CN3CCCC[C@H]3C(=O)O)cc2F)c1C [Example 19, (2S,2′S)-1,1′-(((((2,2′-Dimethyl-[1,1′-biphenyl]-3,3′-diyl)bis(methylene))bis(oxy))bis(3-fluoro-4,1-phenylene))bis(methylene))bis(piperidine-2-carboxylic acid)] | 110 to 1000 | 205 to 209
COc1cc(OCc2cccc(-c3cccc(COc4cc(OC)c(CNCCO)c(OC)c4)c3C)c2C)cc(OC)c1CNCCO [Example 22, 2,2′-((((((2,2′-Dimethyl-[1,1′-biphenyl]-3,3′-diyl)bis(methylene))bis(oxy))bis(2,6-dimethoxy-4,1-phenylene))bis(methylene))bis(azanediyl))bis(ethan-1-ol)] | 11 to 100 | 86 to 90
